ChEMBL document CHEMBL3804825, “Synthesis, structure-activity relationships, and biological evaluation of a series of benzamides as potential multireceptor antipsychotics” (Bioorg Med Chem Lett, 2016)
One block for each compound: values may come before it. Activity calls are given as the source filed them. The rule behind the calls is not given here.

Columns and labels:
[1] = target: D(2) dopamine receptor (Homo sapiens, UniProt P14416); assay: Antagonistic activity at human dopamine D2 receptor measured after 60 mins by Ultra Lance cAMP assay; type: functional
D(2) dopamine receptor, sequence (P14416 whole entry): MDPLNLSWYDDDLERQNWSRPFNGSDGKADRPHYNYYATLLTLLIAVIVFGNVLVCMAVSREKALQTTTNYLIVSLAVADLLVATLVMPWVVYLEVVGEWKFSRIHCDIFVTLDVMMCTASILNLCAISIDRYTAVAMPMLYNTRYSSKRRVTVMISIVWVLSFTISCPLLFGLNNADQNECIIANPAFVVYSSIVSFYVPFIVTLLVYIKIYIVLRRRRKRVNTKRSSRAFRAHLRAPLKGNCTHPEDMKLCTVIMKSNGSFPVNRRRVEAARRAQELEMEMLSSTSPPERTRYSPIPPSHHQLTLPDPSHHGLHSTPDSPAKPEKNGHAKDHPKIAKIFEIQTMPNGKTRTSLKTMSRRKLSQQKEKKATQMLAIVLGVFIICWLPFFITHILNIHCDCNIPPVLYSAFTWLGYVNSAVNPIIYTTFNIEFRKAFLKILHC

[2] = target: T1, 5-hydroxytryptamine receptor 1A (Homo sapiens, UniProt P08908); assay: Agonistic activity at human 5-HT1A receptor measured after 60 mins by Ultra Lance cAMP assay; type: functional
T1 sequence (P08908 whole entry): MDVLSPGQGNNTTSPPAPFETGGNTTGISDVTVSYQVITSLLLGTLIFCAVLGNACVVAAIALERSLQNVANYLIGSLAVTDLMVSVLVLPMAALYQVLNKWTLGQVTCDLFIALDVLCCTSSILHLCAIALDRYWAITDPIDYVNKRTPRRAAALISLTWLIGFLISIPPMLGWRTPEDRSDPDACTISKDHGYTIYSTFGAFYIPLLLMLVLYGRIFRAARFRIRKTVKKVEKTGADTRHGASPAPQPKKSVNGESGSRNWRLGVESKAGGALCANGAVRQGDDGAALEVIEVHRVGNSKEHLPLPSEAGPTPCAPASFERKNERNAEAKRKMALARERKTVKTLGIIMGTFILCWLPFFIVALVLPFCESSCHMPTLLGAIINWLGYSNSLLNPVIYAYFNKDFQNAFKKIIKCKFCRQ

[3] = target: 5-hydroxytryptamine receptor 2A (Homo sapiens, UniProt P28223); assay: Antagonistic activity at human 5-HT2A receptor assessed as calcium flux after 10 mins by FLIPR assay; type: functional
5-hydroxytryptamine receptor 2A, sequence (P28223 whole entry): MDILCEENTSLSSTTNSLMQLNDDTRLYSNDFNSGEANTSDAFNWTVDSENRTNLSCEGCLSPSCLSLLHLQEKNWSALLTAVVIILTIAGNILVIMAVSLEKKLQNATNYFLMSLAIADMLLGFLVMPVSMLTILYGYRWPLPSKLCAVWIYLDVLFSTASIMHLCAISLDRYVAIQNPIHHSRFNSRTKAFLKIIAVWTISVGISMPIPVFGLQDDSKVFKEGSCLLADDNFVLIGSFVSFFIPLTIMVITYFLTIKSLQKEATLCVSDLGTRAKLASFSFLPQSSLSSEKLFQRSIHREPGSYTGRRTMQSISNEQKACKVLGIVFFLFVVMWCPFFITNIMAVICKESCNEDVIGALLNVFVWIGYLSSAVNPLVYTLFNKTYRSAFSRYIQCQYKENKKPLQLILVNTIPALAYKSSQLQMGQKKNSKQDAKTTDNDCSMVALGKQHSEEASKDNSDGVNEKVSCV

[4] = system: Mus musculus; assay: Antipsychotic activity in mouse assessed as inhibition of PCP-induced hyperactivity at 10 mg/kg, ip administered 45 mins prior testing measured after 60 mins; type: functional, organism-based
[5] = Metabolic stability in human liver microsomes assessed as compound loss at 2 uM measured after 30 mins in presence of NADPH by LC-MS/MS analysis; type: ADME; settings: read-out: Drug degradation
[6] = system: Mus musculus; assay: Toxicity in ig dosed mouse assessed as induction of catalepsy by horizontal bar method; type: organism-based; settings: in vivo, po
[7] = system: Mus musculus; assay: Toxicity in mouse assessed as induction of sedation at 10 mg/kg, ip administered 45 mins prior testing measured after 60 mins; type: organism-based; settings: in vivo, 1 h
[8] = system: Mus musculus; assay: Antipsychotic activity in mouse assessed as inhibition of PCP-induced hyperactivity at 1 mg/kg, ip administered 45 mins prior testing measured after 60 mins; type: functional, organism-based
[9] = system: Mus musculus; assay: Toxicity in mouse assessed as induction of sedation at 1 mg/kg, ip administered 45 mins prior testing measured after 60 mins; type: organism-based; settings: in vivo, 1 h
[10] = system: Mus musculus; assay: Antipsychotic activity in ig dosed mouse assessed as inhibition of PCP-induced hyperactivity; type: functional; settings: for ED50: po
[11] = target: T2, Alpha-1A adrenergic receptor (Homo sapiens, UniProt P35348); assay: Antagonistic activity at alpha-1A adrenergic receptor (unknown origin) after 10 mins by FLIPR assay
T2 sequence (P35348 whole entry): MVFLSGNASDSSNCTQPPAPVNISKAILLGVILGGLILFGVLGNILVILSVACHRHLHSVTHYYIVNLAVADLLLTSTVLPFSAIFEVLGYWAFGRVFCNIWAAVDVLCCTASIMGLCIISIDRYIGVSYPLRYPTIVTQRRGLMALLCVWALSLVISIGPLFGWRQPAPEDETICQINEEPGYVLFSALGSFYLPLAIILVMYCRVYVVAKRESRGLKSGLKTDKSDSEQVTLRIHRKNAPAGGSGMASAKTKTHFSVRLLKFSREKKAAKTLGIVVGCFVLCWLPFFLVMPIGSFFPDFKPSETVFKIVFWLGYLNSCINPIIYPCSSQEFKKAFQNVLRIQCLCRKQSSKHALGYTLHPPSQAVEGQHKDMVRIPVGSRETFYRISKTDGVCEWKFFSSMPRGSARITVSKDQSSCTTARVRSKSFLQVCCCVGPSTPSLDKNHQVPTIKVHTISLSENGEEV

[12] = target: Histamine H1 receptor (Homo sapiens, UniProt P35367); assay: Antagonistic activity at histamine1 receptor (unknown origin) after 10 mins by FLIPR assay
Histamine H1 receptor, sequence (P35367 whole entry): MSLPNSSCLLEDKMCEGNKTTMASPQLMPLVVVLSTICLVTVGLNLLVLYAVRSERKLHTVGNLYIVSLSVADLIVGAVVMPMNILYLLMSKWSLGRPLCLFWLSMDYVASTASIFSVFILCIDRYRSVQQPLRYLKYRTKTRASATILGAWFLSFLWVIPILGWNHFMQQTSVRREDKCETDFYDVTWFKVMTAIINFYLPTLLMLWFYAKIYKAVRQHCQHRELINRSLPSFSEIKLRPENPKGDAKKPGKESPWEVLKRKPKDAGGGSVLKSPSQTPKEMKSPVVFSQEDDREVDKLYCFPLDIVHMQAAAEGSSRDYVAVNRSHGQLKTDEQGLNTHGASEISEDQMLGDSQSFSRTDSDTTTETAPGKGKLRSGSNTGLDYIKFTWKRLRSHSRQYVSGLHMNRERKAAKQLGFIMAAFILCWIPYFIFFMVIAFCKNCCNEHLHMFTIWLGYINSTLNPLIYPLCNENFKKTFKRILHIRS

[13] = target: T3, 5-hydroxytryptamine receptor 2C (Homo sapiens, UniProt P28335); assay: Antagonistic activity at 5-HT2c receptor (unknown origin) after 10 mins by FLIPR assay
T3 sequence (P28335 whole entry): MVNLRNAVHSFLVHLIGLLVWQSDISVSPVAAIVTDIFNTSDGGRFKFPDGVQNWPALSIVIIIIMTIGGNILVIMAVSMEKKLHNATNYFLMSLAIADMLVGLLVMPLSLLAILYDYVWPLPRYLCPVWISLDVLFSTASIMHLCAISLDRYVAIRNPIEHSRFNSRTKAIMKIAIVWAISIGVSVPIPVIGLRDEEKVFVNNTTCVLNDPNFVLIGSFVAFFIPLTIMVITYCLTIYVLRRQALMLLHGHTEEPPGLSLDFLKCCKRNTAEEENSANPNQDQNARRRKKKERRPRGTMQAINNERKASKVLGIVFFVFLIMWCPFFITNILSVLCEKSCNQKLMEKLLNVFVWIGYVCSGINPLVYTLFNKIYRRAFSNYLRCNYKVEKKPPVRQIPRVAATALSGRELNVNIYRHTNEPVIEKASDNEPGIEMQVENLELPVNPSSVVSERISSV

[14] = target: Voltage-gated inwardly rectifying potassium channel KCNH2 (Homo sapiens, UniProt Q12809)
Voltage-gated inwardly rectifying potassium channel KCNH2, sequence (Q12809 whole entry): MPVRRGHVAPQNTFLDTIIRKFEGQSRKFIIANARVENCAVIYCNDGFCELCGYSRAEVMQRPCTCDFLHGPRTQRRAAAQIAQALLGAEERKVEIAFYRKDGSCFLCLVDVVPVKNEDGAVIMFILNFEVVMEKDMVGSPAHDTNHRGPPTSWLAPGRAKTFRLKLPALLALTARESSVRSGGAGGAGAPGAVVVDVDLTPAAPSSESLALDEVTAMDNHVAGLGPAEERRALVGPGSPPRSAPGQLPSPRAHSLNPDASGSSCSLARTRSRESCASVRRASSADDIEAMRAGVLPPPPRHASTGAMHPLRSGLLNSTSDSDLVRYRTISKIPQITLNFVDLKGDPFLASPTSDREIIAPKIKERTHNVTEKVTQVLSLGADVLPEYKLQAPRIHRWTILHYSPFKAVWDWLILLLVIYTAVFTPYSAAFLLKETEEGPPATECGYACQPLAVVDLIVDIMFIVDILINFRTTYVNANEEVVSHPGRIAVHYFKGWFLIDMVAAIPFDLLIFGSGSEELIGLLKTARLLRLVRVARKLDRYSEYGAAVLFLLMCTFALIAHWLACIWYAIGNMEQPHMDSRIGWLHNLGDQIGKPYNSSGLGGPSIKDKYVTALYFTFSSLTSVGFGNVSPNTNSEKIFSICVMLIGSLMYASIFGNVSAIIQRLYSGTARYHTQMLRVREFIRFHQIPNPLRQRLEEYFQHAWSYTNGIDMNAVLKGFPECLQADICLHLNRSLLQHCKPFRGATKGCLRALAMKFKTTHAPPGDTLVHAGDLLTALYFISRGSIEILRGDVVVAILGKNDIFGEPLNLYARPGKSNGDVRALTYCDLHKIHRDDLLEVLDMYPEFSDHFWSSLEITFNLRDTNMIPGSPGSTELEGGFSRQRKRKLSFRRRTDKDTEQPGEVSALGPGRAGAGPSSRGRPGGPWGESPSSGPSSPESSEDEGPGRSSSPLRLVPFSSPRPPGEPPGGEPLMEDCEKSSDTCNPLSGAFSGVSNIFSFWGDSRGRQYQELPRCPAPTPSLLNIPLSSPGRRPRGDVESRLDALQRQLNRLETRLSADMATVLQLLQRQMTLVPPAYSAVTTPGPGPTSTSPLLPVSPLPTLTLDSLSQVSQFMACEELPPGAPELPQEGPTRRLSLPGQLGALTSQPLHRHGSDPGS
Description: Inhibition of human ERG after 10 mins

[15] = in vivo; settings: mouse, po
Description: Therapeutic index, ratio of ED50 for toxicity in orally dosed mouse by catalepsy test to ED50 for antipsychotic activity in mouse

SMILES: CNC(=O)c1cc(F)cc(OCCCCN2CCN(c3cccc(Cl)c3Cl)CC2)c1
IC50 [1]: 1580 nM | EC50 [2]: 361 nM | IC50 [3]: 1320 nM

SMILES: Cc1nc2n(c(=O)c1CCN1CCC(c3noc4cc(F)ccc34)CC1)CCCC2 [RISPERIDONE]
ED50 [6]: 0.3 mg/kg

SMILES: CNC(=O)c1cc(OCCCCN2CCN(c3cccc(Cl)c3Cl)CC2)ccc1C
IC50 [1]: 9.8 nM | EC50 [2]: 74 nM | IC50 [3]: 460 nM

SMILES: CNC(=O)c1cccc(OCCCCN2CCN(c3cccc(Cl)c3Cl)CC2)c1C
IC50 [1]: 3600 nM | EC50 [2]: 122 nM | IC50 [3]: 860 nM

SMILES: CNC(=O)c1cccc(OCCCCN2CCN(c3cccc(Cl)c3Cl)CC2)c1F
IC50 [1]: 171 nM | EC50 [2]: 301 nM | IC50 [3]: 30.3 nM

SMILES: CNC(=O)c1cccc(OCCCCN2CCN(c3cccc(Cl)c3Cl)CC2)c1OC
IC50 [1]: 202 nM | EC50 [2]: 120 nM | IC50 [3]: 720 nM

SMILES: CNC(=O)c1ccccc1OCCCCN1CCN(c2cccc(Cl)c2Cl)CC1
IC50 [1]: 167 nM | EC50 [2]: 309 nM | IC50 [3]: 2200 nM

SMILES: CNC(=O)c1cc(OCCCCN2CCN(c3cccc(Cl)c3Cl)CC2)ccc1Cl
IC50 [1]: 34.9 nM | EC50 [2]: 34.4 nM | IC50 [3]: 340 nM

SMILES: CCCCCNC(=O)c1cccc(OCCCCN2CCN(c3cccc(Cl)c3Cl)CC2)c1
IC50 [1]: 16.8 nM | EC50 [2]: 464 nM | IC50 [3]: 1100 nM

SMILES: CC(=O)Nc1cccc(OCCCCN2CCN(c3cccc(Cl)c3Cl)CC2)c1
IC50 [1]: 98.4 nM | EC50 [2]: > 100 nM | IC50 [3]: 1050 nM

SMILES: CNC(=O)c1cc(C)cc(OCCCCN2CCN(c3cccc(Cl)c3Cl)CC2)c1
IC50 [1]: 89.8 nM | EC50 [2]: 97.2 nM | IC50 [3]: 1400 nM

SMILES: CNC(=O)c1cc(OCCCCN2CCN(c3cccc(Cl)c3Cl)CC2)cc(C(C)=O)c1
IC50 [1]: 37.7 nM | EC50 [2]: 137 nM | IC50 [3]: 494 nM

SMILES: NC(=O)c1cccc(OCCCCN2CCN(c3cccc(Cl)c3Cl)CC2)c1
EC50 [2]: 26 nM | IC50 [3]: 1100 nM

SMILES: CNC(=O)c1ccc(OC)c(OCCCCN2CCN(c3cccc(Cl)c3Cl)CC2)c1
IC50 [1]: 12 nM | EC50 [2]: 26 nM | IC50 [3]: 840 nM

SMILES: CNC(=O)c1ccc(OCCCCN2CCN(c3cccc(Cl)c3Cl)CC2)cc1
IC50 [1]: 70 nM | EC50 [2]: 122 nM | IC50 [3]: 820 nM

SMILES: CNC(=O)c1ccc(Cl)c(OCCCCN2CCN(c3cccc(Cl)c3Cl)CC2)c1
IC50 [1]: 58.5 nM | EC50 [2]: > 10000 nM | IC50 [3]: 1380 nM

SMILES: CCNC(=O)c1cccc(OCCCCN2CCN(c3cccc(Cl)c3Cl)CC2)c1
IC50 [1]: 116 nM | EC50 [2]: 101 nM | IC50 [3]: 670 nM

Continued, in another order:

IC50 [1]: 12 nM | EC50 [2]: 2.7 nM | IC50 [3]: 35 nM | metabolised at 0.5 h, 2 µM [5]: 47%
SMILES: CNC(=O)c1cc(OCCCCN2CCN(c3nsc4ccccc34)CC2)ccc1F
inhibition [4]: inactive

IC50 [1]: 91 nM | EC50 [2]: 5.1 nM | IC50 [3]: 216 nM
SMILES: CNC(=O)c1cccc(OCCCCN2CCN(c3cccc4sccc34)CC2)c1

IC50 [1]: 39.4 nM | EC50 [2]: 7.2 nM | IC50 [3]: 360 nM
SMILES: CNC(=O)c1cc(OCCCCN2CCN(c3cccc(Cl)c3Cl)CC2)ccc1F

IC50 [1]: 32 nM | EC50 [2]: 24 nM | IC50 [3]: 1100 nM
SMILES: CNC(=O)c1cccc(OCCCCN2CCN(c3cccc(Cl)c3Cl)CC2)c1

IC50 [1]: 4.1 nM | EC50 [2]: 12 nM | IC50 [3]: > 10000 nM
SMILES: CNC(=O)c1cccc(OCCCCN2CCN(c3cccc4c3OC(F)(F)O4)CC2)c1

IC50 [1]: 30 nM | EC50 [2]: 8.2 nM | IC50 [3]: 1900 nM
SMILES: CNC(=O)c1cc(OCCCCN2CCN(c3cccc4c3OC(F)(F)O4)CC2)ccc1F

IC50 [1]: 43 nM | EC50 [2]: 6 nM | IC50 [3]: 80 nM | metabolised at 0.5 h, 2 µM [5]: 51%
SMILES: CNC(=O)c1cc(OCCCCN2CCN(c3cccc4sccc34)CC2)ccc1F
inhibition [4]: inactive

IC50 [1]: 10 nM | EC50 [2]: 4.3 nM | IC50 [3]: 180 nM
SMILES: CNC(=O)c1cccc(OCCCCN2CCN(c3nsc4ccccc34)CC2)c1

IC50 [1]: 8.5 nM | EC50 [2]: 13 nM | IC50 [3]: 46 nM | metabolised at 0.5 h, 2 µM [5]: 3% | IC50 [11]: 35 nM | IC50 [12]: 2560 nM | IC50 [13]: 190 nM
SMILES: CNC(=O)c1cccc(OCCCCN2CCC(c3noc4cc(F)ccc34)CC2)c1
inhibition [4]: Active | Activity [7]: Toxic | inhibition [8]: Active | Activity [9]: Non-toxic | inhibition [10]: Dose-dependent effect | ED50 [10]: 0.06 mg/kg | ED50 [6]: 6.76 mg/kg | IC50 [14]: 1030 nM | selectivity ratio [15]: 113

IC50 [1]: 23 nM | EC50 [2]: 13 nM | IC50 [3]: 15 nM | metabolised at 0.5 h, 2 µM [5]: 14% | IC50 [11]: 120 nM | IC50 [12]: 972 nM | IC50 [13]: 270 nM
SMILES: CNC(=O)c1cc(OCCCCN2CCC(c3noc4cc(F)ccc34)CC2)ccc1F
inhibition [4]: Active | Activity [7]: Toxic | inhibition [8]: Active | Activity [9]: Non-toxic | inhibition [10]: Dose-dependent effect | ED50 [10]: 0.11 mg/kg | ED50 [6]: 7.04 mg/kg
